Reference: patent US8283324B2, “Immunomodulatory and anti-tumour peptides” (Centro de Ingenieria Genetica y Biotecnologia, priority 2006, dated 2012)

What was measured:
IFN-α gene = IFN-α gene expression in human mononuclear cells (RT-PCR); assay type: cell-based; settings: 40 μg/ml, 18 h
Protocol: For this assay, human mononuclear cells were isolated by a Ficoll-Hypaque gradient from a leukocyte concentrate or “Buffy Coat” of a donor. Up to 5×10^6 were seeded in 24-well plates in RPMI 1640 medium supplemented with 10% calf fetal serum. Each peptide was further added at 40 μg/ml in a 0.1 ml volume of RPMI medium and cells were cultured for 18 h at 37° C. and 5% of CO2. Total RNA was extracted by using the TriReagent method. Afterwards, the expressions of IFN-α, IFN-γ and IL-12 genes were determined by the reverse transcription reaction and PCR amplification (RT-PCR kit, Perkin Elmer). Results are shown as relative amounts of messenger RNA normalized against expression levels of the β-actin housekeeping gene.

[1] = system: mice lung cancer 3LLD122 cells; assay: metastasis model of Lewis' carcinoma; assay type: in vivo, C57BI/6 female mice; settings: 4 mg/kg s.c. after 7 days; sacrifice 21 days after removal of primary tumor; FIG. 8
Protocol: Eight-to-ten weeks-old C57BI/6 female mice were used for this assay (n=8 animals per experimental group). These animals were inoculated in the posterior right footpad with 250,000 mice lung cancer 3LLD122 cells. After 7 days, a 4 mg/kg of body weight dose of the L-2 analogous peptide was subcutaneously injected. When tumors reached 8 mm in diameter, the primary tumor was surgically removed from the carrier leg. Mice were sacrificed 21 days after this surgical procedure. Lungs were weighed to indicate the amount of metastasis on them.

[2] = competition ELISA for heparin-binding capacity; settings: peptides at 2 μM with 250 units of heparin; FIG. 2
Protocol: This assay consists on a competition ELISA system, similar to the previously described one. The biotinylated LALF32-51 peptide was adsorbed to polystyrene plates (Costar, USA) in 1×PBS and incubated overnight at 4° C. Analogous peptides L-2, L-8, L-12 and L-20 were mixed at 2 μM with 250 units of heparin (Sodic Heparin, 5,000 U/ml, Liorad) in 1×PBS plus 0.1% of bovine serum albumin (BSA). Afterwards, mixes were added to an ELISA plate containing 0.02 μM of the biotinylated LALF32-51 peptide adsorbed to the solid surface. After a 1 h-incubation at room temperature, plates were washed five times with washing solution and the biotinylated LALF32-51 peptide fixed to the solid surface was detected by incubating for 45 min at 37° C. with streptavidin-peroxidase conjugate at a 1:2,000. Afterwards, plates were washed five times with washing solution and the substrate solution was added. After an additional incubation for 15 min, the reactions were stopped with 2 M sulphuric acid solution. The lack of heparin binding to the analogous peptides correlates with the […] optical density, because they are unable to displace the heparin bound to the biotinylated LALF32-51 peptide adsorb to the solid surface. The unlabeled LALF32-51 peptide at a 100× molar excess was used as control of the assay.

MB16-F10 tumor cells = assay: anti-tumoral effect in a melanoma model; assay type: in vivo, C57BI/6 female mice; settings: 4 mg per kg
Protocol: Eight-to-ten weeks-old C57BI/6 female mice were used for this assay (n=10 animals per experimental group). For tumor graft, MB16-F10 tumor cells were used, being resuspended in phosphate-buffered saline (PBS). An amount of 15,000 cells were inoculated in a 200 μl volume by subcutaneous route in the right hind limb. After 4 days, the L-2 peptide was administered, with the second injection administered 7 after the first, and the third immunization was administered 14 days after. In this assay was evaluated a dose of 4 mg of peptide per kg of animal weight. Parameters evaluated to measure the anti-tumoral effect of the given peptide during this assay were the time of tumor grafting and the animal survival.

TC-1 cells = assay: double challenge schedule with TC-1 tumor cells; assay type: in vivo; settings: second challenge, day 49 after the first challenge
Protocol: Animals without established tumors in the schedule of the previous example (n=6) were further challenged for a second time with 50,000 TC-1 cells in a 200 μl volume in PBS by subcutaneous route in the left hind limb (day 49 after the first challenge). The same amount of tumor cells were inoculated to “naïve” mice from the same litter as control group of the experiment, to guarantee the homogeneity in age, and were kept under the same conditions without receiving the peptide (n=10 animals). Parameters evaluated to measure the anti-tumoral effect of the L-2 peptide included the time of tumor grafting and animal survival.

With “HARIKPTFRRLKWKYKGKFW [Peptide L-2, alanine-substituted analogue of LALF 32-51]” the “expression of the IFN-α gene compared to the LALF32-51 peptide” value (IFN-α gene; FIG. 3B) was “more effective”, the “expression of the IFN-α gene” value (IFN-α gene; mRNA normalized against β-actin, FIG. 3A) was “capable of inducing the expression” and the “metastasis (lung weight)” value [1] was “able to reduce the metastatic tumor events”. For the same sequence, the heparin binding [2] was “unable to bind heparin”, the “time of tumor grafting” value (MB16-F10 tumor cells; three administrations starting after 4 days, Log Rank *p<0.05, FIG. 5A) was “significantly delayed tumor grafting” and the animal survival (MB16-F10 tumor cells; three administrations, Log Rank *p<0.05, FIG. 5B) was “significantly increased the survival of animals”. The “animal survival compared to the LALF32-51 peptide” value (MB16-F10 tumor cells; FIG. 5B) was “more effective than the LALF32-51 peptide”, the “time of tumor grafting” value (TC-1 cells; FIG. 7A) was “retarding the establishment of the tumor” and the animal survival (TC-1 cells; FIG. 7B) was “increasing animal survival”.
